Data taken from ChEMBL document CHEMBL5506005, “Biochemical and structural characterization of chlorhexidine as an ATP-assisted inhibitor against type 1 methionyl-tRNA synthetase from Gram-positive bacteria” (Eur J Med Chem, 2024).
≈ marks a conversion by molar mass, not a printed value. Each block holds one molecule with its values, some of them ahead of it. Calls of active or inactive are those of the source. No cut-off for these calls is given here.

Tests used:
[1] = target: Methionine--tRNA ligase (Staphylococcus aureus (strain Mu50 / ATCC 700699)) (UniProt P67578); experiment: Binding affinity to Staphylococcus aureus MetRS expressed in Escherichia coli BL21(DE3) cells assessed as change in melting temperature at 100 uM incubated for 10 mins followed by heat treatment by SYPRO orange dye based TSA (reference value: 53.7 degreeC)
[2] = target: Methionine--tRNA ligase (Staphylococcus aureus (strain Mu50 / ATCC 700699)) (UniProt P67578); experiment: Inhibition of Staphylococcus aureus MetRS expressed in Escherichia coli BL21(DE3) cells at 100 uM measured after 2.5 hrs in presence of ATP by pre-transfer editing assay relative to control
[3] = target: Methionine--tRNA ligase (Staphylococcus aureus (strain Mu50 / ATCC 700699)) (UniProt P67578); experiment: Binding affinity to Staphylococcus aureus MetRS expressed in Escherichia coli BL21(DE3) cells assessed as change in melting temperature at 100 uM incubated for 10 mins followed by heat treatment in presence of 2 mM ATP by SYPRO orange dye based TSA (reference value: 56.4 degreeC)
[4] = target: T1, Methionine--tRNA ligase (Enterococcus faecalis) (UniProt A0A3N3ZFK4); experiment: Binding affinity to Enterococcus faecalis type 1 MetRS expressed in Escherichia coli BL21(DE3) cells assessed as change in Gibbs free energy by ITC analysis
T1 sequence (A0A3N3ZFK4 as listed by the source): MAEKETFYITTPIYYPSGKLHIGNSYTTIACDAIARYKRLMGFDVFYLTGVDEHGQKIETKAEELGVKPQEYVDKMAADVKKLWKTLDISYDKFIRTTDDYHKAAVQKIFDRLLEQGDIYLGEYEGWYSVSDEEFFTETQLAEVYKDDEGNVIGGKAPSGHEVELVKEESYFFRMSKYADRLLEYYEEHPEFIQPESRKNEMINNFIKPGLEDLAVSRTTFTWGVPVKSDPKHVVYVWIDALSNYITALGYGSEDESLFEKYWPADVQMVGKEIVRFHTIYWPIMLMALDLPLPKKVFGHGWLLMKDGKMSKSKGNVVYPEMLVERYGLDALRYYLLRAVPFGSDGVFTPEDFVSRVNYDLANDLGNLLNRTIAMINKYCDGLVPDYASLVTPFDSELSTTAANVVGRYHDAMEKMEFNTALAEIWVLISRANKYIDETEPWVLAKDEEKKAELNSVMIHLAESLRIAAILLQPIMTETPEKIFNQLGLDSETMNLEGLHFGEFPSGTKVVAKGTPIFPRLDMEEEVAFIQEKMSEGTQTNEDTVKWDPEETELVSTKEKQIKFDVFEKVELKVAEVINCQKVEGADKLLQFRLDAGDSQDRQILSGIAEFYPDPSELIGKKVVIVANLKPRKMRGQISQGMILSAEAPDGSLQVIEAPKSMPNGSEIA

[5] = target: Methionine--tRNA ligase (Staphylococcus aureus (strain Mu50 / ATCC 700699)) (UniProt P67578); experiment: Binding affinity to Staphylococcus aureus MetRS expressed in Escherichia coli BL21(DE3) cells assessed as thermal stability by measuring change in melting temperature incubated for 10 mins followed by heat treatment in presence of 2 mM ATP by SYPRO orange dye based TSA
[6] = target: Methionine--tRNA ligase (Staphylococcus aureus (strain Mu50 / ATCC 700699)) (UniProt P67578); experiment: Binding affinity to Staphylococcus aureus MetRS expressed in Escherichia coli BL21(DE3) cells assessed as change in enthalpy in presence of 500 uM ATP by ITC analysis
[7] = target: Methionine--tRNA ligase (Staphylococcus aureus (strain Mu50 / ATCC 700699)) (UniProt P67578); experiment: Binding affinity to Staphylococcus aureus MetRS expressed in Escherichia coli BL21(DE3) cells assessed as change in Gibbs free energy in presence of 500 uM ATP by ITC analysis
[8] = target: T1, Methionine--tRNA ligase (Enterococcus faecalis); experiment: Binding affinity to Enterococcus faecalis type 1 MetRS expressed in Escherichia coli BL21(DE3) cells assessed as change in enthalpy in presence of 1 mM ATP by ITC analysis
[9] = target: Methionine--tRNA ligase (Staphylococcus aureus (strain Mu50 / ATCC 700699)) (UniProt P67578); experiment: Binding affinity to Staphylococcus aureus MetRS expressed in Escherichia coli BL21(DE3) cells assessed as change in enthalpy in presence of ATP/L-Met by ITC analysis
[10] = target: Methionine--tRNA ligase (Staphylococcus aureus (strain Mu50 / ATCC 700699)) (UniProt P67578); experiment: Binding affinity to Staphylococcus aureus MetRS expressed in Escherichia coli BL21(DE3) cells assessed as increase in melting temperature incubated for 10 mins followed by heat treatment in presence of 0.30 to 10 mM ADP by SYPRO orange dye based TSA
[11] = target: T1, Methionine--tRNA ligase (Enterococcus faecalis); experiment: Binding affinity to Enterococcus faecalis type 1 MetRS expressed in Escherichia coli BL21(DE3) cells assessed as change in entropy in presence of 1 mM ATP by ITC analysis
[12] = target: Methionine--tRNA ligase (Staphylococcus aureus (strain Mu50 / ATCC 700699)) (UniProt P67578); experiment: Binding affinity to Staphylococcus aureus MetRS expressed in Escherichia coli BL21(DE3) cells assessed as change in Gibbs free energy by ITC analysis
[13] = target: Methionine--tRNA ligase (Staphylococcus aureus (strain Mu50 / ATCC 700699)) (UniProt P67578); experiment: Binding affinity to Staphylococcus aureus MetRS expressed in Escherichia coli BL21(DE3) cells assessed as change in entropy by ITC analysis
[14] = target: Methionine--tRNA ligase (Staphylococcus aureus (strain Mu50 / ATCC 700699)) (UniProt P67578); experiment: Binding affinity to Staphylococcus aureus MetRS expressed in Escherichia coli BL21(DE3) cells assessed as change in enthalpy in presence of 1 mM ATP by ITC analysis
[15] = target: Methionine--tRNA ligase (Staphylococcus aureus (strain Mu50 / ATCC 700699)) (UniProt P67578); experiment: Binding affinity to Staphylococcus aureus MetRS expressed in Escherichia coli BL21(DE3) cells assessed as change in entropy in presence of 1 mM ATP by ITC analysis
[16] = target: Methionine--tRNA ligase (Staphylococcus aureus (strain Mu50 / ATCC 700699)) (UniProt P67578); experiment: Binding affinity to Staphylococcus aureus MetRS expressed in Escherichia coli BL21(DE3) cells assessed as change in Gibbs free energy in presence of 50 uM ATP by ITC analysis
[17] = target: Methionine--tRNA ligase (Staphylococcus aureus (strain Mu50 / ATCC 700699)) (UniProt P67578); experiment: Binding affinity to Staphylococcus aureus MetRS expressed in Escherichia coli BL21(DE3) cells assessed as increase in melting temperature incubated for 10 mins followed by heat treatment in presence of <3 mM AMP by SYPRO orange dye based TSA
[18] = target: Methionine--tRNA ligase (Staphylococcus aureus (strain Mu50 / ATCC 700699)) (UniProt P67578); experiment: Binding affinity to Staphylococcus aureus MetRS expressed in Escherichia coli BL21(DE3) cells assessed as change in entropy in presence of ATP/L-Met by ITC analysis
[19] = target: Methionine--tRNA ligase (Staphylococcus aureus (strain Mu50 / ATCC 700699)) (UniProt P67578); experiment: Binding affinity to Staphylococcus aureus MetRS expressed in Escherichia coli BL21(DE3) cells assessed as change in Gibbs free energy in presence of ATP/L-Met by ITC analysis
[20] = target: Methionine--tRNA ligase (Staphylococcus aureus (strain Mu50 / ATCC 700699)) (UniProt P67578); experiment: Binding affinity to Staphylococcus aureus MetRS expressed in Escherichia coli BL21(DE3) cells assessed as change in enthalpy in presence of 50 uM ATP by ITC analysis
[21] = target: Methionine--tRNA ligase (Staphylococcus aureus (strain Mu50 / ATCC 700699)) (UniProt P67578); experiment: Binding affinity to Staphylococcus aureus MetRS expressed in Escherichia coli BL21(DE3) cells assessed as increase in melting temperature incubated for 10 mins followed by heat treatment in presence of 0.30 to 10 mM ATP by SYPRO orange dye based TSA
[22] = target: T1, Methionine--tRNA ligase (Enterococcus faecalis); experiment: Binding affinity to Enterococcus faecalis type 1 MetRS expressed in Escherichia coli BL21(DE3) cells assessed as change in Gibbs free energy in presence of 1 mM ATP by ITC analysis
[23] = target: Methionine--tRNA ligase (Staphylococcus aureus (strain Mu50 / ATCC 700699)) (UniProt P67578); experiment: Inhibition of Staphylococcus aureus type 1 MetRS expressed in Escherichia coli BL21(DE3) cells at 50 uM measured after 2.5 hrs by pre-transfer editing assay
[24] = target: Methionine--tRNA ligase (Staphylococcus aureus (strain Mu50 / ATCC 700699)) (UniProt P67578); experiment: Binding affinity to Staphylococcus aureus MetRS expressed in Escherichia coli BL21(DE3) cells assessed as change in entropy in presence of 50 uM ATP by ITC analysis
[25] = target: Methionine--tRNA ligase (Staphylococcus aureus (strain Mu50 / ATCC 700699)) (UniProt P67578); experiment: Binding affinity to Staphylococcus aureus MetRS expressed in Escherichia coli BL21(DE3) cells assessed as change in Gibbs free energy in presence of 1 mM ATP by ITC analysis
[26] = target: Methionine--tRNA ligase (Staphylococcus aureus (strain Mu50 / ATCC 700699)) (UniProt P67578); experiment: Binding affinity to Staphylococcus aureus MetRS expressed in Escherichia coli BL21(DE3) cells assessed as change in entropy in presence of 20 uM ATP by ITC analysis
[27] = target: Methionine--tRNA ligase (Staphylococcus aureus (strain Mu50 / ATCC 700699)) (UniProt P67578); experiment: Binding affinity to Staphylococcus aureus MetRS expressed in Escherichia coli BL21(DE3) cells assessed as change in enthalpy in presence of 20 uM ATP by ITC analysis
[28] = target: T1, Methionine--tRNA ligase (Enterococcus faecalis); experiment: Binding affinity to Enterococcus faecalis type 1 MetRS expressed in Escherichia coli BL21(DE3) cells assessed as change in enthalpy by ITC analysis
[29] = target: T1, Methionine--tRNA ligase (Enterococcus faecalis); experiment: Inhibition of Enterococcus faecalis type 1 MetRS expressed in Escherichia coli BL21(DE3) cells at 50 uM measured after 1.5 hrs by pre-transfer editing assay
[30] = target: Methionine--tRNA ligase (Staphylococcus aureus (strain Mu50 / ATCC 700699)) (UniProt P67578); experiment: Binding affinity to Staphylococcus aureus MetRS expressed in Escherichia coli BL21(DE3) cells assessed as change in Gibbs free energy in presence of 20 uM ATP by ITC analysis
[31] = target: Methionine--tRNA ligase (Staphylococcus aureus (strain Mu50 / ATCC 700699)) (UniProt P67578); experiment: Binding affinity to Staphylococcus aureus MetRS expressed in Escherichia coli BL21(DE3) cells assessed as change in entropy in presence of 500 uM ATP by ITC analysis
[32] = tested on: Staphylococcus aureus; experiment: Antibacterial activity against Staphylococcus aureus; assay type: functional
[33] = target: T1, Methionine--tRNA ligase (Enterococcus faecalis); experiment: Binding affinity to Enterococcus faecalis type 1 MetRS expressed in Escherichia coli BL21(DE3) cells assessed as change in entropy by ITC analysis
[34] = target: Methionine--tRNA ligase (Staphylococcus aureus (strain Mu50 / ATCC 700699)) (UniProt P67578); experiment: Binding affinity to Staphylococcus aureus MetRS expressed in Escherichia coli BL21(DE3) cells assessed as change in enthalpy by ITC analysis

ΔTm [1]: 1.2 °C
inhibition [2]: < 20%
ΔTm [3]: 1 °C
Molecule: VITAMIN E

Molecule: N=C(NCCCCCCNC(=N)NC(=N)Nc1ccc(Cl)cc1)NC(=N)Nc1ccc(Cl)cc1 [CHLORHEXIDINE]
deltaG [4]: -7.23 kcal/mol
ΔTm [5]: 7 °C
ΔTm [1]: -3.4 °C
deltaH [6]: -12.5 kcal/mol
deltaG [7]: -8.5 kcal/mol
deltaH [8]: -7.31 kcal/mol
deltaH [9]: -13.6 kcal/mol
Activity [10]: Active
-TdeltaS [11]: -1.6 kcal/mol
deltaG [12]: -6.81 kcal/mol
-TdeltaS [13]: 0.027 kcal/mol
inhibition [2]: 78.3%
deltaH [14]: -11 kcal/mol
-TdeltaS [15]: 2.31 kcal/mol
deltaG [16]: -8.07 kcal/mol
Activity [17]: inactive
ΔTm [3]: 7 °C
-TdeltaS [18]: 6.23 kcal/mol
deltaG [19]: -7.34 kcal/mol
deltaH [20]: -18.8 kcal/mol
Activity [21]: Active
deltaG [22]: -8.91 kcal/mol
inhibition [23]: Active
-TdeltaS [24]: 10.7 kcal/mol
deltaG [25]: -8.66 kcal/mol
-TdeltaS [26]: 13.8 kcal/mol
deltaH [27]: -20 kcal/mol
deltaH [28]: -11.3 kcal/mol
inhibition [29]: Active
deltaG [30]: -7.52 kcal/mol
-TdeltaS [31]: 4.43 kcal/mol
MIC [32]: 0.25 µg/mL (≈ 0.495 µM)
-TdeltaS [33]: 4.06 kcal/mol
deltaH [34]: -5.95 kcal/mol

ΔTm [1]: 0.5 °C
inhibition [2]: 32.7%
ΔTm [3]: 2.1 °C
Molecule: COc1cc(Nc2c(C#N)cnc3cc(OCCCN4CCN(C)CC4)c(OC)cc23)c(Cl)cc1Cl

ΔTm [1]: -0.1 °C
inhibition [2]: < 20%
ΔTm [3]: 1.1 °C
Molecule: CCN(CC)CCCC(C)Nc1ccnc2cc(Cl)ccc12 (stereo not drawn)
